The source made the active and inactive calls. No rule for the calls is given here.
Biological target: Chaperone protein DnaK (Escherichia coli (strain K12)) (UniProt P0A6Y8)
Experiment: binders of DnaK substrate-binding domain, biophysical, NMR, chaperone (AID 1033)
Conditions: Purified DnaK SBD, NMR ligand binding

Chain of Chaperone protein DnaK (Escherichia coli (strain K12)) (P0A6Y8 whole entry, looked up, the tested form may be a part): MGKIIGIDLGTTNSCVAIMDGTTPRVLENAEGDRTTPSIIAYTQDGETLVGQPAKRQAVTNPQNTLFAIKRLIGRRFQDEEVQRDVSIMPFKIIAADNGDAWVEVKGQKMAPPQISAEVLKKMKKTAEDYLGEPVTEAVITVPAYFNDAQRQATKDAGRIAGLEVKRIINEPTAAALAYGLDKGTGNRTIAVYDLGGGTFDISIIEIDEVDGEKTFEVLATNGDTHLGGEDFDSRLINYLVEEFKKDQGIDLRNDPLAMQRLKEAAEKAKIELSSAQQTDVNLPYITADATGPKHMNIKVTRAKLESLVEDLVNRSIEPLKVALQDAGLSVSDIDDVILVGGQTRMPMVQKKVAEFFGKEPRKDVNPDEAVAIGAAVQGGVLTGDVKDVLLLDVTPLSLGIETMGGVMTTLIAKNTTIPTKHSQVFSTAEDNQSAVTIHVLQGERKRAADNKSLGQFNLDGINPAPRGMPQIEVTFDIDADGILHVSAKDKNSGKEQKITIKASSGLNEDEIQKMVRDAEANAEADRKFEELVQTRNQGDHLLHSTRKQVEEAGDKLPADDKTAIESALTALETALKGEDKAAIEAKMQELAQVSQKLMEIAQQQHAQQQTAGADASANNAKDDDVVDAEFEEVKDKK

SMILES	Kd
COc1ccccc1-c1noc(-c2ccco2)n1	> 4 mM (inactive)
CC(=O)Nc1ccc(Oc2nc(C)cc(C)n2)cc1	> 4 mM (inactive)
C[n+]1cccc(C(=O)[O-])c1	> 4 mM (inactive)
NC(=O)CSc1ccc2nnc(-c3ccccc3)n2n1	> 4 mM (inactive)
C=C[C@](C)(O)CCC=C(C)C	> 4 mM (inactive)
COC1=CC(=O)C[C@@H](C)[C@]12Oc1c(Cl)c(OC)cc(OC)c1C2=O	> 4 mM (inactive)
NC(=O)c1ccc(NC(=O)C2CC2)cc1	> 4 mM (inactive)
Cc1cc[n+](-c2nc([O-])sc2C=O)cc1	> 4 mM (inactive)
COCCn1c(N)nc2c1c(=O)[nH]c(=O)n2C	> 4 mM (inactive)
Cc1nnc(SCc2ccc(F)cc2)s1	> 4 mM (inactive)
O=C1CSC(=Nc2ccc(O)cc2)N1	> 4 mM (inactive)
COc1ccc2c(c1OC)C(=O)N(c1ncn[nH]1)C2	> 4 mM (inactive)
Cn1cnnc1SCC(=O)Nc1ccccc1	> 4 mM (inactive)
Cc1cc2nc(SCC(=O)O)nc(C)c2cc1C	> 4 mM (inactive)
CN=C1SC(CC(=O)Nc2ccc(O)cc2)C(=O)N1C (stereo not drawn)	> 4 mM (inactive)
O=C(O)C1CC(=O)N(C2Cc3ccccc3C2)C1 (stereo not drawn)	> 4 mM (inactive)
COCc1cc(=O)oc2cc(O)c(Cl)cc12	> 4 mM (inactive)
O=C(Nc1cccnc1)c1c(F)cccc1F	> 4 mM (inactive)
c1ccc(-c2noc(-c3cccnc3)n2)nc1	> 4 mM (inactive)
COCC(=O)NC1CC(C)(C)NC(C)(C)C1	> 4 mM (inactive)
COc1cnn(Cc2ccccc2)c(=O)c1Cl	> 4 mM (inactive)
Nc1ccc2c(c1)OCO2	> 4 mM (inactive)

SMILES	Kd
Cc1cc(NC(=O)c2cc(C)on2)no1	> 4 mM (inactive)
Cn1c(O)c(C2=NC(=S)NC2=O)c2ccccc21	> 4 mM (inactive)
Nc1nsc(-c2ccccc2)n1	> 4 mM (inactive)
O=C(O)C1(O)C[C@@H](O)C(O)[C@H](O)C1 (stereo partly drawn)	> 4 mM (inactive)
NCc1cccc2c1OCCCO2	> 4 mM (inactive)
O=C(/C=C/c1ccco1)NC1=NCCS1	> 4 mM (inactive)
COc1cc(N)ccc1NC(=O)c1cccs1	> 4 mM (inactive)
CP(C)(=O)CCC(=O)O	> 4 mM (inactive)
CC1(C)Cc2cccc(CO)c2O1	> 4 mM (inactive)
O=C1CNC(=O)N1Cc1ccc(Br)cc1	> 4 mM (inactive)
Nc1cc(C(F)(F)F)ccc1N1CCOCC1	> 4 mM (inactive)
CC(=O)Nc1ccc(NC(=O)c2ccncc2)cc1	> 4 mM (inactive)
O=C(O)CC1Sc2ccccc2NC1=O (stereo not drawn)	> 4 mM (inactive)
CC(=O)N1CCc2ccccc2C1CC(=O)O (stereo not drawn)	> 4 mM (inactive)
c1ccc(C2NCCc3[nH]cnc32)cc1 (stereo not drawn)	> 4 mM (inactive)
Cc1ccc2c(c1)CCCN2C(=O)c1c(C)noc1C	> 4 mM (inactive)
CC(=O)Oc1cc(-c2coc3cc(OC(C)=O)c(OC(C)=O)c(OC(C)=O)c3c2=O)cc(OC(C)=O)c1OC(C)=O	> 4 mM (inactive)
NC(=O)CS(=O)(=O)c1ccc2ccccc2c1	> 4 mM (inactive)
CCOC(=O)CSc1nnc(C)c(=O)[nH]1	> 4 mM (inactive)
Cc1noc(C)c1C(=O)N1CCC(Cc2ccccc2)CC1	> 4 mM (inactive)
Cc1onc(-c2ccccc2)c1CO	> 4 mM (inactive)
COc1ccc(CN2CCC(O)CC2)c(O)c1	> 4 mM (inactive)

SMILES	Kd
Cn1cc(Cl)c(C(=O)NC2CCCCCC2)n1	> 4 mM (inactive)
c1cncc(-c2nnc(-c3cccnc3)nn2)c1	> 4 mM (inactive)
Oc1ccc([C@H]2Oc3cc(O)cc(O)c3C[C@H]2O)cc1	> 4 mM (inactive)
C[C@]12CC(=O)C3C(CC[C@@H]4C[C@H](O)CC[C@]34C)C1CC[C@]2(O)C(=O)CO (stereo partly drawn)	> 4 mM (inactive)
CC(C)NS(=O)(=O)c1ccc(N)cc1	> 4 mM (inactive)
OCc1ccc2c(c1)OCO2	> 4 mM (inactive)
CNc1ccccc1C(=O)O	> 4 mM (inactive)
CC(=O)Nc1nnc(-c2ccco2)o1	> 4 mM (inactive)
Cn1cnnc1SCCCNC(=O)Nc1ncccn1	> 4 mM (inactive)
Nc1c(N2CCCC2)cnn(-c2ccccc2)c1=O	> 4 mM (inactive)
NCc1n[nH]c(=O)c2ccccc12	> 4 mM (inactive)
O=C(Nc1ccon1)c1sc2cc(F)ccc2c1Cl	> 4 mM (inactive)
CS(=O)(=O)N1CCN(C(=O)c2ccccc2)CC1	> 4 mM (inactive)
O=C(COc1ccccc1)N1CCc2ccccc2C1	> 4 mM (inactive)
O=S1(=O)NC(=NCc2ccccc2)c2ccccc21	> 4 mM (inactive)
COc1cccc(C(=O)Nc2c(C)n[nH]c2C)c1	> 4 mM (inactive)
Cc1cc(O)c2c(c1)C(=O)c1cccc(O)c1C2=O	> 4 mM (inactive)
CCOC(=O)c1ccc(F)cc1F	> 4 mM (inactive)
COc1ccc(-c2c(O)c3c(OC)c4c(cc3oc2=O)OC(C)(C)CC4)cc1	> 4 mM (inactive)
CN1CCN(C(=O)C2CCCNC2)CC1 (stereo not drawn)	> 4 mM (inactive)
NCC1CN(Cc2ccccc2)CCO1 (stereo not drawn)	> 4 mM (inactive)
O=c1cnnc(NCc2ccc(F)cc2)[nH]1	> 4 mM (inactive)

SMILES	Kd
Cc1nc2c(n1O)CCc1c-2no[n+]1[O-]	> 4 mM (inactive)
CC1(C)C[C@@H]2C(=O)CC[C@H]3O[C@]3(C)CC[C@H]21	> 4 mM (inactive)
Cc1cccc(-c2nnc(-c3ccc(N)cc3)o2)c1	> 4 mM (inactive)
CN(C)C(=O)Oc1ccc(-c2nnco2)cc1	> 4 mM (inactive)
O=C(c1ccc2c(c1)OCO2)N1CCC2(CC1)OCCO2	> 4 mM (inactive)
Nc1cccc(-n2cnnn2)c1	> 4 mM (inactive)
CC(=O)Oc1ccc(N2C(=O)C3C4C=CC(O4)C3C2=O)cc1 (stereo not drawn)	> 4 mM (inactive)
O=C(c1cc2ccccc2o1)N1CCCCCC1	> 4 mM (inactive)
COc1cc(OC)c2ccc(=O)oc2c1	> 4 mM (inactive)
c1ccc(CCc2nc(-c3ccccn3)no2)cc1	> 4 mM (inactive)
CC(=O)c1c(O)c(C)c(O)c2c1OC1=CC(=O)C(C(C)=O)C(=O)C12C (stereo not drawn)	> 4 mM (inactive)
C=C1C[C@]23C[C@@]1(O)CC[C@H]2[C@@]12C=C[C@H](O)C(C)(C(=O)O1)[C@H]2[C@@H]3C(=O)O	> 4 mM (inactive)
CCOC(=O)Cn1cnc2sc3c(c2c1=O)CCC3	> 4 mM (inactive)
CC(C)=CCC/C(C)=C/CC/C(C)=C/CC/C(C)=C/CC/C(C)=C/CC/C(C)=C/CC/C(C)=C/CC/C(C)=C/CC/C(C)=C/CO	> 4 mM (inactive)
Cc1cc(NC(=O)c2ccc3c(c2)OCCO3)no1	> 4 mM (inactive)
Cc1cc(=O)n2ncn(Cc3ccccc3)c2n1	> 4 mM (inactive)
CC1=NN2C(=N)/C(=C\c3cccs3)C(=O)N=C2S1	> 4 mM (inactive)
CCCc1cc(=O)[nH]c2nnc(SCC(C)=O)n12	> 4 mM (inactive)
Nc1ccc(-c2csnn2)cc1	> 4 mM (inactive)
Cc1nn(-c2ccccc2)nc1CN	> 4 mM (inactive)
O=C1c2ccccc2C(=O)N1Cc1ccco1	> 4 mM (inactive)
COCCn1cnc2cc(C)c(C)cc21	> 4 mM (inactive)

— PubChem BioAssay AID1033 (Sanford-Burnham Center for Chemical Genomics, 2008)
